target: T1, Progesterone Receptor (PR) (Homo sapiens, UniProt P06401); assay: In vitro functional assay for progesterone receptor (PR) antagonists: inhibition of progesterone-induced alkaline phosphatase expression in T47D cells; format: cell-based; details: antagonist format, 5 nM progesterone, Ki calculated from IC50 with the Cheng-Prusoff equation
T1 construct: endogenous in cells; host or cells: T47D human breast mammary carcinoma cells
T1 sequence (P06401 1-933): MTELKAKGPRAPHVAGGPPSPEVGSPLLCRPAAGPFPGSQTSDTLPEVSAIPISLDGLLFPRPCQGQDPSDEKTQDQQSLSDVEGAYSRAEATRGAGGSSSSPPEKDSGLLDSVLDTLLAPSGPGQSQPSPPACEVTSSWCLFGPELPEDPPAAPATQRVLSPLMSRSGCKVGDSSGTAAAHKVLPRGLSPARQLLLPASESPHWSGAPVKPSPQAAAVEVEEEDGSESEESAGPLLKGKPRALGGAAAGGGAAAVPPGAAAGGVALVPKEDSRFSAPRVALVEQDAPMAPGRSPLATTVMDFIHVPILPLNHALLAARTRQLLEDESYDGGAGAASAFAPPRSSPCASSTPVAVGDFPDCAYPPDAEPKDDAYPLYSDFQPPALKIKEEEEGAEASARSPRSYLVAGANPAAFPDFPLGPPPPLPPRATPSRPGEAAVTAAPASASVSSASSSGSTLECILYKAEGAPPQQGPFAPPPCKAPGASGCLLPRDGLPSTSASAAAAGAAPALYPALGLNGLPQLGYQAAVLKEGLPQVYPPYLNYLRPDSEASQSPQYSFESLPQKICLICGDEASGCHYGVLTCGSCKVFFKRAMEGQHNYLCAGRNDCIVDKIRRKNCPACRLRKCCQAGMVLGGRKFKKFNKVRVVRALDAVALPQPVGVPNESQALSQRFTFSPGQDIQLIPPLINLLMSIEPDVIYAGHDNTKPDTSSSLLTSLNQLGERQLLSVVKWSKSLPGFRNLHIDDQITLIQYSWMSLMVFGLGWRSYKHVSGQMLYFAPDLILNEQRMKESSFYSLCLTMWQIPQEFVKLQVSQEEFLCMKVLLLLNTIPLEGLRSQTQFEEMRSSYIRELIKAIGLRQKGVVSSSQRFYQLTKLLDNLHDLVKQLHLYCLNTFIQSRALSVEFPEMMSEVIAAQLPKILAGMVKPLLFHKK
From the text: 1.0 In vitro Functional Assay for Progesterone Receptor (PR) Antagonists, Agonists and Modulators
The assay for PR antagonism takes advantage of the extensively reported modulation of alkaline phosphatase (AP) expression in human breast T47D mammary carcinoma cells {Beck et al., D. P. (1993). The progesterone antagonist RU486 acquires agonist activity upon stimulation of cAMP signalling pathways. Proc Natl Acad Sci USA 90, 4441-4445; Fensome et al. (2002). New progesterone receptor antagonists: 3,3-disubstituted-5-aryloxindoles. Bioorg Med Chem Lett 12, 3487-3490; Zhang et al., (2002a). 6-Aryl-1,4-dihydro-benzo d1,3oxazin-2-ones: a novel class of potent, selective, and orally active nonsteroidal progesterone receptor antagonists. Journal of Medicinal Chemistry 45, 4379-4382; Zhang et al., (2003). Novel 6-aryl-1,4-dihydrobenzo d oxazine-2-thiones as potent, selective, and orally active nonsteroidal progesterone receptor agonists. Bioorganic & Medicinal Chemistry Letters 13, 1313-1316; Zhang et al., (2002b). Potent nonsteroidal progesterone receptor agonists: synthesis and SAR study of 6-aryl benzoxazines. Bioorganic & Medicinal Chemistry Letters 12, 787-790; Zhang, Z. et al., (2000). In vitro characterization of trimegestone: a new potent and selective progestin. Steroids 65, 637-643}. […] In the absence of progesterone any agonist activity is also observed as an induction of AP activity. By running the assay in two formats (+/−progesterone (P4)), compounds behaving as PR antagonists, agonists, partial agonists or modulators with mixed agonist/antagonist activity can be identified.
Briefly, T47D cells are grown by propagating in DMEM with phenol red+10% FCS+2 mM Glutamine at 37° C./5% CO2. At 70-80% confluence, the media is exchanged for phenol red free DMEM+5% CS-FCS (Assay media). Cells are incubated overnight in assay media then harvested and frozen in assay media containing 10% DMSO at 1.5e7 cells/mL in 2 mL aliquots using a Planer and immediately stored in liquid nitrogen. Vials are removed from liquid nitrogen storage and immediately thawed in a water bath at 37° C. The cell suspension is added dropwise to 20 mL of assay media, then the tube centrifuged at 1000 rpm for 4 minutes, the supernatant is discarded and the pellet re-suspended in 20 mL assay media. T47D cells are then plated at 8750 cells/well in 35 μL assay media in sufficient white solid 384 well TC plates for the assay. For the agonist format assay a further 10 μL of assay media is added to each well. These plates are then cultured for 3-6 hours at 37° C./5% CO2 before compound addition.
Test substances are prepared by in 100% DMSO, half log concentrations from 4 mM in 384 well plates 5 μL/well (referred to here as ‘grandmother plates’). Progesterone is 100 μM made up in ethanol and PBS (i.e. add 1 mL ethanol to progesterone initially to help dissolving) and stored in 0.5-1 mL aliquots at −20° C.
Using a multidrop (Thermolabsystems), 60 μL/well of buffer is added to a 384 well plate—this will be the ‘mother plate’. _Add 45 μL well buffer to grandmother plate using the multidrop (=400 μM 10% DMSO dilution). Mixed and spun to remove air bubbles. • 20 μL is taken from the grandmother plate (400 μM 10% DMSO) and added to the mother plate (=100 μM 2.5% DMSO). Mixed and spun to remove air bubbles Preparation of Max/Min:
Antagonist Min: (Checker Pattern on Plate Map) 1 μM RU-486 (FAC 0.1 μM) • 50 μL of 0.2 mM RU-486 • 10 mL Diluent Addition of Test Substance to Cell Plates • The PlateMate Plus was used to add 5 μL MAX/MIN to cell plates • Then 5 μL test substances are added from the mother plate (after removing max/min PlateMate tips: columns 1 and 24)
Addition of Agonist (5 nM Progesterone FAC) for Antagonist Format Only
25 nM progesterone in assay media is prepared from 100 μM stock (12.5 μL progesterone/50 mL media), from which 10 μL per well is transferred to the assay plate using the PlateMate Plus (already containing cells & compound). […]

| Ki [nM] | SMILES |
| --- | --- |
| 18.6 | CC(C)C(=O)N1CC[C@@H](NC(=O)c2c(C3CC3)c(-c3ccc(C#N)cc3)nn2C(C)C)C1 [Example 11, 3-(4-Cyanophenyl)-4-cyclopropyl-N-[(3R)-1-isobutyrylpyrrolidin-3-yl]-1-isopropyl-1H-pyrazole-5-carboxamide] |
| 34.8 | CC(C)n1nc(-c2ccc(C#N)cc2)c(C2CC2)c1C(=O)N[C@@H]1CCN(S(C)(=O)=O)C1 [Example 13, 3-(4-Cyanophenyl)-4-cyclopropyl-1-isopropyl-N-[(3R)-1-(methylsulfonyl)pyrrolin-3-yl]-1H-pyrazole-5-carboxamide] |
| 302 | CC(C)C(=O)N1CC[C@H](NC(=O)c2c(C3CC3)c(-c3ccc(C#N)cc3)nn2C(C)C)C1 [Example 14, 3-(4-Cyanophenyl)-4-cyclopropyl-N-[(3S)-1-isobutyrylpyrrolidin-3-yl]-1-isopropyl-1H-pyrazole-5-carboxamide] |
| 280 | CCC(=O)N1CC[C@H](NC(=O)c2c(C3CC3)c(-c3ccc(C#N)cc3)nn2C(C)C)C1 [Example 15, 3-(4-Cyanophenyl)-4-cyclopropyl-1-isopropyl-N-[(3S)-1-propionylpyrrolidin-3-yl]-1H-pyrazole-5-carboxamide] |
| 42.8 | CC(C)C(=O)N1CC(NC(=O)c2c(C3CC3)c(-c3ccc(C#N)cc3)nn2C(C)C)C1 [Example 16, 3-(4-Cyanophenyl)-4-cyclopropyl-N-(1-isobutyrylazetidin-3-yl)-1-isopropyl-1H-pyrazole-5-carboxamide] |
| 42.2 | CCC(=O)N1CC(NC(=O)c2c(C3CC3)c(-c3ccc(C#N)cc3)nn2C(C)C)C1 [Example 17, 3-(4-Cyanophenyl)-4-cyclopropyl-1-isopropyl-N-(1-propionylazetidin-3-yl)-1H-pyrazole-5-carboxamide] |
| 38.2 | CC(C)n1nc(-c2ccc(C#N)cc2)c(C2CC2)c1C(=O)NC1CN(S(C)(=O)=O)C1 [Example 18, 3-(4-Cyanophenyl)-4-cyclopropyl-1-isopropyl-N-[1-(methylsulfonyl)azetidin-3-yl]-1H-pyrazole-5-carboxamide] |
| 51.4 | CC(=O)N1CC(NC(=O)c2c(C3CC3)c(-c3ccc(C#N)cc3)nn2C(C)C)C1 [Example 19, N-(1-Acetylazetidin-3-yl)-3-(4-cyanophenyl)-4-cyclopropyl-1-isopropyl-1H-pyrazole-5-carboxamide] |
| 3.78 | CCCNC(=O)c1c(C2CC2)c(-c2ccc(C#N)cc2)nn1C(C)C [Example 20, 3-(4-Cyanophenyl)-4-cyclopropyl-1-isopropyl-N-propyl-1H-pyrazole-5-carboxamide] |
| 8.27 | COCCCNC(=O)c1c(C2CC2)c(-c2ccc(C#N)cc2)nn1C(C)C [Example 21, 3-(4-Cyanophenyl)-4-cyclopropyl-1-isopropyl-N-(3-methoxypropyl)-1H-pyrazole-5-carboxamide] |
| 6.67 | CC(C)n1nc(-c2ccc(C#N)cc2)c(C2CC2)c1C(=O)NCCC(F)(F)F [Example 22, 3-(4-Cyanophenyl)-4-cyclopropyl-1-isopropyl-N-(3,3,3-trifluoropropyl)-1H-pyrazole-5-carboxamide] |
| 10.2 | CC(C)n1nc(-c2ccc(C#N)cc2)c(C2CC2)c1C(=O)NCc1ccncn1 [Example 23, 3-(4-Cyanophenyl)-4-cyclopropyl-1-isopropyl-N-(pyrimidin-4-ylmethyl)-1H-pyrazole-5-carboxamide] |
| 19.4 | CC(C)n1nc(-c2ccc(C#N)cc2)c(C2CC2)c1C(=O)N[C@H]1CCOC1=O [Example 24, 3-(4-Cyanophenyl)-4-cyclopropyl-1-isopropyl-N-[(3S)-2-oxotetrahydrofuran-3-yl]-1H-pyrazole-5-carboxamide] |
| 24.5 | CNC(=O)CNC(=O)c1c(C2CC2)c(-c2ccc(C#N)cc2)nn1C(C)C [Example 25, 3-(4-Cyanophenyl)-4-cyclopropyl-1-isopropyl-N-[2-(methylamino)-2-oxoethyl]-1H-pyrazole-5-carboxamide] |
| 86.1 | CC(C)n1nc(-c2ccc(C#N)cc2)c(C2CC2)c1C(=O)NCCCN1CCCC1=O [Example 26, 3-(4-Cyanophenyl)-4-cyclopropyl-1-isopropyl-N-[3-(2-oxopyrrolidin-1-yl)propyl]-1H-pyrazole-5-carboxamide] |
| 161 | COC(=O)C(C)(C)NC(=O)c1c(C2CC2)c(-c2ccc(C#N)cc2)nn1C(C)C [Example 27] |
| 171 | CC(C)n1nc(-c2ccc(C#N)cc2)c(C2CC2)c1C(=O)NCCN [Example 28, N-(2-Aminoethyl)-3-(4-cyanophenyl)-4-cyclopropyl-1-isopropyl-1H-pyrazole-5-carboxamide] |
| 235 | CC(C)n1nc(-c2ccc(C#N)cc2)c(C2CC2)c1C(=O)NCC(C)(C)N [Example 29, N-(2-amino-2-methylpropyl)-3-(4-cyanophenyl)-4-cyclopropyl-1-isopropyl-1H-pyrazole-5-carboxamide] |
| 30.9 | CC(C)n1nc(-c2ccc(C#N)cc2)c(C2CC2)c1C(=O)NCc1cnn(C)c1 [Example 30, 3-(4-Cyanophenyl)-4-cyclopropyl-1-isopropyl-N-[(1-methyl-1H-pyrazol-4-yl)methyl]-1H-pyrazole-5-carboxamide] |
| 36.3 | CC(C)n1nc(-c2ccc(C#N)cc2)c(C2CC2)c1C(=O)N[C@@H]1CC[C@H](O)C1 [Example 31, 3-(4-Cyanophenyl)-4-cyclopropyl-N-[(1R,3S)-3-hydroxycyclopentyl]-1-isopropyl-1H-pyrazole-5-carboxamide] |
| 34.6 | CC(C)n1nc(-c2ccc(C#N)cc2)c(C2CC2)c1C(=O)N[C@H]1C[C@@H](O)C1 [Example 32, 3-(4-Cyanophenyl)-4-cyclopropyl-N-(cis-3-hydroxycyclobutyl)-1-isopropyl-1H-pyrazole-5-carboxamide] |
| 7.11 | CC[C@H](C)NC(=O)c1c(C2CC2)c(-c2ccc(C#N)cc2)nn1C(C)C [Example 33, 3-(4-Cyanophenyl)-4-cyclopropyl-1-isopropyl-N-[(1S)-1-methylpropyl]-1H-pyrazole-5-carboxamide] |
